Source: ChEMBL document CHEMBL1201862, “PubChem BioAssay data set” (2004)
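Grown in 96-well plates, cells were treated for 48 hours with each compound at five concentrations. Insufficient inhibition: endpoint recorded as highest concentration tested. GI50 marks 50% less growth.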 Calls of active or inactive are those of the source. No stated cut-off is given here; in the data, active = GI50 up to about 1.1 µM and inactive = higher.

How the values were obtained:
Test in all cases: DTP human tumour cell line panel, 48 h
[1] = system: SW-620
[2] = system: LOX IMVI
[3] = system: CAKI-1
[4] = system: NCI-H460
[5] = system: MDA-MB-435
[6] = system: NCI-H23
[7] = system: HCC 2998
[8] = system: SK-OV-3
[9] = system: UO-31
[10] = system: NCI/ADR-RES
[11] = system: HOP-92
[12] = system: OVCAR-4
[13] = system: NCI-H226
[14] = system: U-251
[15] = system: COLO 205
[16] = system: Malme-3M
[17] = system: BT-549
[18] = system: RPMI-8226

Measured: GI50

O=C1Nc2ccccc2/C1=N/Nc1nc(-c2ccccc2)cs1
inactive: [1] > 100 µM | [2] 44.6 µM | [3] 18.3 µM | [4] 14.7 µM | [5] > 100 µM | [6] 47.6 µM | [7] 52.5 µM | [8] 59 µM | [9] 24.7 µM | [10] 20.5 µM | [11] 35.7 µM | [12] 40.7 µM | [13] > 100 µM | [14] 24.2 µM | [15] 42.4 µM

N#Cc1sc2c(c1O)c(=O)n(-c1ccccc1)c(=S)n2-c1ccccc1
inactive: [1] > 100 µM | [2] > 100 µM | [16] > 100 µM | [4] > 100 µM | [5] > 100 µM | [6] > 100 µM | [7] > 100 µM | [9] > 100 µM | [17] > 100 µM | [11] > 100 µM | [12] > 100 µM | [13] > 100 µM | [18] > 100 µM | [14] > 100 µM | [15] > 100 µM

COC(=O)c1ccc2c(c1)CC1(C2)Cc2ccccc2C1=O (stereo not drawn)
inactive: [1] 32.7 µM | [2] 22.4 µM | [16] 20.8 µM | [3] 34.7 µM | [4] > 100 µM | [5] 24.5 µM | [6] 29.5 µM | [7] 54.5 µM | [8] 68.4 µM | [9] 22.4 µM | [10] 27.6 µM | [11] 18.1 µM | [12] 32.3 µM | [13] 15.1 µM | [18] 13.4 µM | [14] 34.2 µM | [15] 18 µM

C[C@H](CCC(=O)O)[C@H]1CC[C@H]2[C@@H]3[C@@H](O)C[C@@H]4C[C@H](O)CC[C@]4(C)[C@H]3C[C@H](O)[C@]12C
inactive: [1] > 100 µM | [2] > 100 µM | [16] > 100 µM | [3] > 100 µM | [4] > 100 µM | [5] > 100 µM | [6] > 100 µM | [7] > 100 µM | [10] > 100 µM | [11] > 100 µM | [12] > 100 µM | [13] > 100 µM | [18] > 100 µM | [14] > 100 µM | [15] > 100 µM

COc1cc(/C=C/C(=O)OCC23CC[C@@]4(C(=O)O)CCC(C)[C@H](C)C4C2=CCC2[C@@]4(C)CC[C@H](O)C(C)(C)C4CC[C@]23C)ccc1O (stereo partly drawn)
inactive: [1] 37.7 µM | [2] 15.6 µM | [16] 11.9 µM | [3] 44.4 µM | [4] 11.4 µM | [5] 24.5 µM | [6] 3.89 µM | [7] 54.1 µM | [8] 29 µM | [10] 15.6 µM | [17] 19.5 µM | [12] 17.5 µM | [13] 27.5 µM | [14] 27.9 µM | [15] > 10 µM

C[Si](C)(C)C1=C2C(=O)c3ccccc3C(=O)C2=C([Si](C)(C)C)[C@@H]2CCCC[C@H]12
inactive: [1] > 100 µM | [2] > 100 µM | [16] > 100 µM | [3] > 100 µM | [4] > 100 µM | [5] > 100 µM | [6] > 100 µM | [7] > 100 µM | [8] > 100 µM | [9] > 100 µM | [17] > 100 µM | [11] > 100 µM | [12] 95.3 µM | [18] > 100 µM | [14] > 100 µM | [15] > 100 µM

Cc1cc(Nc2ccc(S(=O)(=O)O)c3cc(S(=O)(=O)O)cc(S(=O)(=O)O)c23)c2ccccc2n1
inactive: [1] > 100 µM | [2] > 100 µM | [16] > 100 µM | [3] > 100 µM | [4] > 100 µM | [5] > 100 µM | [6] > 100 µM | [7] > 100 µM | [8] > 100 µM | [9] > 100 µM | [10] > 100 µM | [17] > 100 µM | [12] > 100 µM | [13] > 100 µM | [18] > 100 µM | [14] > 100 µM | [15] > 100 µM

Cn1c(=O)oc2cc(C(=S)N3CCCCC3)ccc21
inactive: [1] > 100 µM | [2] > 100 µM | [16] > 100 µM | [3] > 100 µM | [4] > 100 µM | [5] > 100 µM | [6] > 100 µM | [8] > 100 µM | [10] > 100 µM | [17] > 100 µM | [13] > 100 µM | [18] > 100 µM | [14] > 100 µM | [15] > 100 µM

O=C(NCCCl)Nc1cccnc1
inactive: [1] 50.7 µM | [2] 19.3 µM | [16] 2.62 µM | [3] 21.5 µM | [5] 24.5 µM | [6] 17.5 µM | [7] 17.7 µM | [8] 20.6 µM | [9] 22.3 µM | [10] 21 µM | [11] 19.9 µM | [12] 43.1 µM | [13] 15.7 µM | [18] 2.84 µM | [14] 16.7 µM | [15] 24.7 µM

CN1CCC(CNC(=O)CCCCCCCCC(=O)NCC2(c3ccccc3)CCN(C)CC2)(c2ccccc2)CC1
inactive: [1] > 100 µM | [2] > 100 µM | [16] > 100 µM | [4] > 100 µM | [5] > 100 µM | [7] > 100 µM | [8] > 100 µM | [9] > 100 µM | [10] > 100 µM | [17] > 100 µM | [12] > 100 µM | [13] > 100 µM | [18] > 100 µM | [14] > 100 µM | [15] 69.7 µM

COc1cc(CNC(=O)CCCCCCCC/C=C/Br)ccc1O
inactive: [1] > 10 µM | [2] > 10 µM | [16] > 10 µM | [3] > 10 µM | [4] > 10 µM | [5] > 10 µM | [6] > 10 µM | [7] > 10 µM | [8] > 10 µM | [9] > 10 µM | [10] > 10 µM | [11] > 10 µM | [12] > 10 µM | [13] > 10 µM | [18] > 10 µM | [14] > 10 µM | [15] > 10 µM

CC(NC(CC12CC3CC(CC(C3)C1)C2)C(N)=O)c1ccccc1 (stereo not drawn)
inactive: [1] 31.1 µM | [2] 15.7 µM | [16] 17.9 µM | [3] 23.3 µM | [4] 17.4 µM | [5] 16.7 µM | [7] 17.5 µM | [8] 5.27 µM | [9] 19.2 µM | [10] 17.8 µM | [12] 33.7 µM | [18] 15.7 µM | [14] 13.3 µM | [15] 12.6 µM

COC1OC(CO)C(O)C(OC(=O)c2cc(O)c(O)c(O)c2)C1OC(=O)c1cc(O)c(O)c(O)c1 (stereo not drawn)
inactive: [1] 41.6 µM | [2] 23.3 µM | [16] > 100 µM | [3] 48.3 µM | [4] 69.5 µM | [5] 33.4 µM | [6] > 100 µM | [8] > 100 µM | [9] > 100 µM | [10] 60.4 µM | [17] > 100 µM | [12] 23.1 µM | [13] > 100 µM | [18] > 100 µM | [14] > 100 µM | [15] 59.8 µM

COC(=O)C1(NC(=O)C(Cc2ccccc2)N(C(=O)OC(C)(C)C)C(=O)OC(C)(C)C)CCCC1 (stereo not drawn)
inactive: [1] > 100 µM | [2] > 100 µM | [4] 46.1 µM | [5] 83.9 µM | [6] 30.5 µM | [7] 19.9 µM | [8] > 100 µM | [9] 64 µM | [10] 22.3 µM | [11] 59.2 µM | [13] > 100 µM | [18] 20 µM | [14] 49.5 µM | [15] > 100 µM

CCOP(=O)(OCC)C(c1ccc(F)cc1)N(C(=O)NC(F)(F)F)c1ccc(F)cc1 (stereo not drawn)
inactive: [1] > 100 µM | [2] > 100 µM | [16] > 100 µM | [3] > 100 µM | [4] > 100 µM | [5] > 100 µM | [6] > 100 µM | [7] > 100 µM | [9] > 100 µM | [10] > 100 µM | [13] > 100 µM | [18] > 100 µM | [14] > 100 µM | [15] > 100 µM

NNc1[nH]c(=S)[nH]c1C(N)=O
inactive: [1] > 100 µM | [2] > 100 µM | [16] > 100 µM | [4] > 100 µM | [5] > 100 µM | [6] > 10 µM | [7] > 100 µM | [8] > 100 µM | [9] > 100 µM | [10] > 100 µM | [17] > 100 µM | [12] > 100 µM | [13] > 100 µM | [18] > 100 µM | [14] > 100 µM | [15] > 100 µM

C[C@]12CC[C@H](O)CC1=CC[C@@H]1[C@@H]2CC[C@]2(C)NC(=O)/C(=C\c3ccccc3)C[C@@H]12
inactive: [1] 16.9 µM | [2] 16.8 µM | [16] 15.8 µM | [3] 25.2 µM | [4] 23.9 µM | [5] 18.3 µM | [6] 18.2 µM | [7] 13.4 µM | [8] 18.9 µM | [9] 12.9 µM | [10] 18.5 µM | [17] 17 µM | [12] 5.64 µM | [13] 14.9 µM | [18] 21.6 µM | [14] 14.1 µM | [15] 16 µM
